# Assays:
# CK2α = CK2α mRNA and protein expression, H1299 cells; assay type: cell-based, human; conditions: vs Scr
# Description: Cellular proteins were extracted by RIPA lysis buffer at high salt concentration (420 mM NaCl), and western blot analysis was performed in accordance with standard protocols. Scans of enhanced chemiluminescence (ECL) films showing uncropped blots are presented in Supplementary Fig. 10. […]
# Total RNA from tissue samples and cultured cells was extracted using TRIzol reagent (Invitrogen). cDNAs were synthesized with a HiScript 1st Strand cDNA Synthesis Kit (Vazyme Biotech, China). Quantitative RT-PCR was performed using a FastStart Universal SYBR Green Master (Roche) according to the manufacturer’s instructions in a Rotor-Gene 6000 (Corbett Research) in a final volume of 20 μl. […]
# Supplementary Figure 8. […] (a) Quantitative real-time PCR analysis of NatD and CK2α mRNA levels in scrambled and NatD-KD H1299 cells normalized to GAPDH. […]
# Slug promoter = assay: ChIP assay on the Slug promoter, H1299 cells; assay type: cell-based, human; conditions: vs Scr
# Text: Fig. 6 Nt-acetylation of histone H4 antagonizes phosphorylation of histone H4 serine 1 to regulate Slug expression. a Western blot analysis of indicated histone H4 modifications in Scr and NatD-KD H1299 cells. Histone H4 served as a loading control. b ChIP analysis of the enrichment of indicated histone H4 modifications on the Slug promoter in Scr and NatD-KD H1299 cells. IgG served as a negative control. Results are shown as mean ± s.d. from three independent experiments; two-tailed Student’s t-test, *P < 0.05, **P < 0.01 compared with the Scr control. c ChIP analysis of the enrichment of H3K4me3 and H3K27me3 on the Slug promoter in Scr and NatD-KD H1299 cells. IgG served as a negative control. Results are shown as mean ± s.d. from three independent experiments; two-tailed Student’s t-test, **P < 0.01 compared with the Scr control. d Western blot analysis of indicated proteins from H1299 cells overexpressing NatDΔ or wild-type NatD. Histone H4 served as a loading control. e ChIP analysis of the enrichment of Nt-ac-H4 and H4S1ph on Slug promoter in H1299 cells overexpressing NatDΔ or wild-type NatD. IgG served as a negative control. Results are shown as mean ± s.d. from three independent experiments; two-tailed Student’s t-test, *P < 0.05, **P < 0.01 compared with the wild-type control
# Fig. 7 Downregulation of Nt-acetylation of histone H4 facilitates nuclear accumulation of CK2α and its binding to histone H4 in lung cancer cells. a Representative confocal scanning images of CK2α localization in Scr and H1299 cells (left panel). The staining intensity of CK2α was quantified by software ImageJ from NIH (right diagram). Scale bars, 5 μm. […] Equal peptide biotinylated on C terminus is shown by dot blot analysis with streptavidin (middle panel). […] IgG served as a negative control. Results are shown as mean ± s.d. from three independent experiments; two-tailed Student’s t-test, **P < 0.01 compared with the indicated control. g Quantitative real-time PCR analysis of mRNA levels of CK2α and Slug normalized to GAPDH in Scr and NatD-KD H1299 cells in the absence or presence of siRNA to CK2α. NC, siRNA mimics negative control. Data are mean ± s.d. of three independent experiments; Student’s t-test, *P < 0.05, **P < 0.01 compared with the indicated control. h Western blot analysis of indicated proteins from Scr and NatD-KD H1299 cells in the absence or presence of siRNA to CK2α.
# ChIP assays were performed with H1299 cells in accordance with standard protocols. Normal rabbit IgG served as the control. ChIP samples were analyzed by quantitative real-time PCR using the FastStart Universal SYBR Green Master (Roche). A standard curve was prepared for each set of primers using serial titration of the input DNA. The percentage of ChIP DNA was calculated relative to the input DNA from primer-specific standard curves using the Rotor-Gene 6000 Series Software 1.7. The primer sequences for ChIP are listed in Supplementary Table 4. Antibodies used were: H4S1ph (Abcam; ab14723), H4K5ac (Millipore; CS204381), H4R3me2a (Active Motif; 39705), H4R3me2s (Abcam; ab5823), CK2α (Abcam; ab70774), H3K4me3 (Abcam; ab8580), and H3K27me3 (Abcam; ab6002).
substance,measurement,setting,value
"NatD-KD2: Human NatD shRNA KD2: 5′-GGTTGAATGTCTCCATTGA-3′, lentiviral (shRNA lentiviral)",levels of CK2α mRNA or protein,CK2α,no increase
same,enrichment of CK2α on Slug promoter,Slug promoter,significantly increased
same,enrichment of H3K4me3 on Slug promoter,Slug promoter,significantly reduced
same,enrichment of H3K27me3 on Slug promoter,Slug promoter,increased
same,enrichment of H4R3me2a and H4K5ac on Slug promoter,Slug promoter,significantly reduced
same,enrichment of H4R3me2s on Slug promoter,Slug promoter,unchanged
same,enrichment of H4S1ph on Slug promoter,Slug promoter,significantly increased
same,enrichment of Nt-ac-H4 on Slug promoter,Slug promoter,significantly reduced
